Data on 13 molecules can be found in patent publication US20110251379A1, “COMPOUNDS USEFUL FOR TREATING NEURODEGENERATIVE DISORDERS” (Satori Pharmaceuticals, Inc., priority 2010, published 2011).

What all share (assay type): cell-based
One assay concerns Aβ-38. Nature of the assay: MSD Human (6E10) Ab 3-PLEX elisa, conditioned media of 2B7 cells: Aβ-38. The conditions noted are these: for IC50: Aβ-38 (superscript a). The essentials: (§1)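 We dose confluent 2B7 cells for 5 hours at 37° C, keeping DMSO at 1%. Diluted media then incubates on antibody-coated plates either overnight at 4 degrees C or 2 hours at room temp.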
A further assay deals with Aβ-42. Nature of the assay: MSD Human (6E10) Ab 3-PLEX elisa, conditioned media of 2B7 cells: Aβ-42. The conditions noted are these: for IC50: Aβ-42 (superscript c). The essentials:
as §1

The next assay concerns Aβ-40. As to the kind of experiment: MSD Human (6E10) Ab 3-PLEX elisa, conditioned media of 2B7 cells: Aβ-40. The note with it: for IC50: Aβ-40 (superscript b). The essentials:
as §1

[1] abbreviates: Homo sapiens, read-out: IC50 range.
Where [2] appears, read: Homo sapiens, read-out: 50% reduction value.

Like-named read-outs stand apart in the source and are kept apart here. Where only a bound is given, the exact number is not on record here.

Regarding `C[C@@H]1CC(CN(C)[C@@H](C)C(=O)O)OC2[C@H]1[C@@]1(C)CC[C@@]34C[C@@]35CC[C@H](O[C@H]3CN(C(=O)CC6CC6)CCO3)C(C)(C)[C@@H]5CCC4[C@]1(C)[C@H]2O` (stereo partly shown) [drawing 1155], the IC50 in the assay on Aβ-38 (setting [1]) was less than 1 µM; in the assay on Aβ-42 (setting [1]), 1 to 10 µM. The inhibition at 100 µM with Aβ-40 (Homo sapiens, Aβ-40, 100 μM) lay within 25 to 75%.

Turning to `CC(=O)O[C@@H]([C@H]1C[C@@H](C)C2C(O1)[C@H](O)[C@@]1(C)[C@@H]3CC[C@H]4C(C)(C)[C@@H](O[C@@H]5OC[C@@H](O)[C@H](O)[C@H]5O)CC[C@@]45C[C@@]35CC[C@]21C)C(C)(C)O` (stereo partly shown) [drawing 1160], the IC50 in the assay with Aβ-38 (setting [1]) was less than 1 µM; in the assay with Aβ-42 (setting [2]), less than 1 µM; in the assay on Aβ-42 (setting [1]), less than 1 µM; in the assay on Aβ-40 (setting [1]), 1 to 10 µM.

Consider `CC(=O)OCC1C[C@@H](C)C2C(O1)[C@H](O)[C@@]1(C)[C@@H]3CC[C@H]4C(C)(C)[C@@H](O)CC[C@@]45C[C@@]35CC[C@]21C` (stereo partly shown) [drawing 1161], for which the inhibition at 20 µM in the assay with Aβ-38 (Homo sapiens, Aβ-38, 20 μM) was in the range of 25 to 75%; with Aβ-42 (Homo sapiens, Aβ-42, 20 μM), 25 to 75%; with Aβ-40 (Homo sapiens, Aβ-40, 20 μM), 25 to 75%.

Turning to `CCC(=O)O[C@@H]([C@H]1C[C@@H](C)C2C(O1)[C@H](O)[C@@]1(C)[C@@H]3CC[C@H]4C(C)(C)[C@@H](O)CC[C@@]45C[C@@]35CC[C@]21C)C(C)(C)O` (stereo partly shown) [drawing 1197], the IC50 in the assay on Aβ-38 (setting [2]), in the assay on Aβ-42 (setting [2]) and in the assay on Aβ-40 (setting [2]) was greater than 10 µM in each case.

Take `CC(=O)O[C@@H]([C@H]1C[C@@H](C)C2C(O1)[C@H](O)[C@@]1(C)[C@@H]3CC[C@H]4C(C)(C)[C@@H](OC5CN(CC(N)=O)CCO5)CC[C@@]45C[C@@]35CC[C@]21C)C(C)(C)O` (stereo partly shown) [drawing 1198]: the values for the IC50 in the assay with Aβ-38 (setting [2]), in the assay with Aβ-42 (setting [2]) and in the assay on Aβ-42 (setting [1]) were less than 1 µM, less than 1 µM and 1 to 10 µM, respectively. In the assay on Aβ-40 (Homo sapiens, Aβ-40, 20 μM), the inhibition at 20 µM is 25 to 75%.

Consider `CC(=O)O[C@@H]([C@H]1C[C@@H](C)C2C(O1)[C@H](O)[C@@]1(C)[C@@H]3CC[C@H]4C(C)(C)[C@@H](OC5CN(CC(=O)N(C)C)CCO5)CC[C@@]45C[C@@]35CC[C@]21C)C(C)(C)O` (stereo partly shown) [drawing 1199], for which the IC50 with Aβ-38 (setting [2]) is less than 1 µM; in the assay with Aβ-38 (setting [1]), less than 1 µM; in the assay with Aβ-42 (setting [2]), less than 1 µM; with Aβ-42 (setting [1]), less than 1 µM; in the assay on Aβ-40 (setting [2]), 1 to 10 µM.

For `CC(=O)O[C@@H]([C@H]1C[C@@H](C)C2C(O1)[C@H](O)[C@@]1(C)[C@@H]3CC[C@H]4C(C)(C)[C@@H](OC(=O)c5cccnc5)CC[C@@]45C[C@@]35CC[C@]21C)C(C)(C)O` (stereo partly shown) [drawing 1200], the IC50 is less than 1 µM in the assay with Aβ-38 (setting [2]); less than 1 µM with Aβ-38 (setting [1]); less than 1 µM with Aβ-42 (setting [2]); less than 1 µM with Aβ-42 (setting [1]); greater than 10 µM in the assay with Aβ-40 (setting [2]).

As for `CC(=O)O[C@@H]([C@H]1C[C@@H](C)[C@H]2[C@H](O1)[C@H](O)[C@@]1(C)[C@@H]3CC[C@H]4C(C)(C)C(OC(N)=O)CC[C@@]45C[C@@]35CC[C@]21C)C(C)(C)O` (stereo partly shown) [drawing 1201], the IC50 with Aβ-38 (setting [2]), in the assay on Aβ-38 (setting [1]), in the assay on Aβ-42 (setting [2]) and with Aβ-42 (setting [1]) was less than 1 µM throughout. The inhibition at 20 µM in the assay on Aβ-40 (Homo sapiens, Aβ-40, 20 μM) is 25 to 75%.

Consider `CC(=O)O[C@@H]([C@H]1C[C@@H](C)[C@H]2[C@H](O1)C(=O)[C@@]1(C)[C@@H]3CC[C@H]4C(C)(C)[C@@H](O[C@H]5CN(CC(N)=O)CCO5)CC[C@@]45C[C@@]35CC[C@]21C)C(C)(C)O` [drawing 1202], for which the IC50 with Aβ-38 (setting [2]), in the assay on Aβ-38 (setting [1]) and with Aβ-40 (setting [2]) was less than 1 µM in each case. In the assay with Aβ-42 (Homo sapiens, Aβ-42, 20 μM), this molecule yielded an inhibition at 20 µM of 25 to 75%.

For the molecule `CC1CC(CO)OC2C1C1(C)CCC34CC35CCC(OC3OCC(O)C(O)C3O)C(C)(C)C5CCC4C1(C)C2O` (stereo not shown) [drawing 1203], the “% Inh. (range)” value in the assay on Aβ-38 (Aβ-38, 100 μM) is given as “E^a (100 μM) E^b (100 μM) (% inhibition of 25-75%)”; with Aβ-40 (Aβ-40, 100 μM), “E^a (100 μM) E^b (100 μM) (% inhibition of 25-75%)”. In the assay with Aβ-42 (read-out: IC50 range), the IC50 was greater than 10 µM.

Take `CC(=O)OC(C1CC(C)C2C(O1)C(O)C1(C)C3CCC4C(C)(C)C(OC5CN(S(C)(=O)=O)CCO5)CCC45CC35CCC21C)C(C)(C)O` (stereo not shown) [drawing 1204]: the IC50 with Aβ-38 (read-out: 50% reduction value), in the assay on Aβ-42 (read-out: 50% reduction value) and in the assay on Aβ-42 (read-out: IC50 range) was less than 1 µM in each case. Also, the “% Inh. (range)” value in the assay with Aβ-40 (Aβ-40, 100 μM) is “E^b (100 μM) (% inhibition of 25-75%)”.

In the case of `CC(=O)OC(C1CC(C)C2C(O1)C(O)C1(C)C3CCC4C(C)(C)C(OC(=O)C5CNC5)CCC45CC35CCC21C)C(C)(C)O` (stereo not shown) [drawing 1205], the IC50 with Aβ-38 (read-out: 50% reduction value) is less than 1 µM; with Aβ-38 (read-out: IC50 range), less than 1 µM; in the assay on Aβ-42 (read-out: 50% reduction value), less than 1 µM; in the assay with Aβ-42 (read-out: IC50 range), less than 1 µM; in the assay on Aβ-40 (read-out: 50% reduction value), less than 1 µM; with Aβ-40 (read-out: IC50 range), 1 to 10 µM.

Take `CC(=O)OCC1CC(C)C2C(O1)C(O)C1(C)C3CCC4C(C)(C)C(OC5OCC(O)C(O)C5O)CCC45CC35CCC21C` (stereo not shown) [drawing 1206]: the “% Inh. (range)” value in the assay with Aβ-38 (Aβ-38, 20 μM) is on record as “E^a (20 μM) E^b (20 μM) E^c (20 μM) (% inhibition of 25-75%)”; with Aβ-42 (Aβ-42, 20 μM), “E^a (20 μM) E^b (20 μM) E^c (20 μM) (% inhibition of 25-75%)”; with Aβ-40 (Aβ-40, 20 μM), “E^a (20 μM) E^b (20 μM) E^c (20 μM) (% inhibition of 25-75%)”.

A word on the inhibition: it is the percentage by which the read-out fell short of the control. Lower therefore signals a weak effect.
